Data taken from publication PMC9603946, “On the Sensitivity of the Virion Envelope to Lipid Peroxidation” (Microbiology Spectrum, 2022).
Read-outs that look alike come from different tables or passages of the source. Marks after values point to notes of the source that are not given here.

Legend:
Vero cells [1] = experiment: Vero cell lipid peroxidation probed with liperfluo; format: cell-based, African green monkey; conditions: Chlorocebus sabaeus, Vero, Liperfluo probe, read-out: CP50 (the source's name)
Method: (§1) The effects of peroxidators have been commonly evaluated against purified lipids and liposomes as a proxy, but they have not been evaluated against virions ([50], [53][–][55]). We instead directly evaluated the extent of virion lipid peroxidation.
To evaluate cell lipid peroxidation using liperfluo, 7.5 × 10^3 Vero cells were seeded into each well of 96-well plates and incubated for 18 h at 37°C in 5% CO2. […] Two hours later, the cells were washed twice, and the fluorescence was evaluated in a TECAN Infinite M200 Pro at 515 nm excitation and 545 nm emission.
(§2) To evaluate the effects of a lipid soluble antioxidant, cells or virions were preloaded with vitamin E-BSA for 3 h at 37°C. Vitamin E-BSA containing medium was removed, and the cells were washed twice with DMEM. Liperfluo (20 or 10 μM for cells or virions, respectively) or C11-Bodipy (1 μM for cells or 0.1 mol% for virions) were preloaded into the cells or virions for 30 min at 37°C.
(§3) To evaluate the effects of water soluble antioxidants, liperfluo (20 μM for cells or 10 μM for virions) or C11-Bodipy (1 μM for cells or 0.1 mol% for virions) were preloaded into the cells or virions for 30 min at 37°C. […] Fluorescence was evaluated in a TECAN Infinite M200 Pro at 515 nm excitation and 545 nm emission for liperfluo or at 550 nm excitation and 580 to 630 nm emission for C11-Bodipy.

[2] = Vero cell viability after 2 h exposure to lipoperoxidators (CellTiter-Glo); conditions: African green monkey, CC50, Vero
Method: (§4) The cells were washed twice with warm DMEM before a 100 μL lipoperoxidator solution was transferred with a multichannel pipette from the plate containing the drug dilutions in technical triplicates. The cells were incubated with peroxidators for 2 h at 37°C. Then, the medium was removed, and the cells were washed twice with DMEM at 37°C. The plates were cooled down to RT, and the medium was removed. Then, 50 μL phenol red free DMEM and 50 μL CellTiter-glo Luminiscent Cell Viability Assay (Promega, G7571/2/3) were added and mixed in an orbital shaker for 2 min. Afterwards, 80 μL of the mix was transferred onto white 96-well plates and incubated for 10 min at RT for signal stabilization. The luminescence was read in the Glomax Multidetection System (Promega) with an integration time of 0.5 s.
(§5) The means of the technical triplicates were normalized to the means of the vehicle controls, analyzed via nonlinear regression dose responses, and graphed using GraphPad Prism 9.0. Three or four independent biological replicates were performed for each treatment (n = 3 or 4).
(§6) To evaluate the effects of lipid soluble antioxidants, 10 μM vitamin E was loaded onto carrier 1% BSA in the dark for 4.5 h at RT. The cells were washed twice with DMEM at 37°C and preloaded with 100 μL of 10 μM vitamin E in BSA carrier for 3 h at 37°C. The cells were washed twice again before the addition of any lipoperoxidators. Peroxidators were then added to the cells at working concentrations and incubated for 2 h at 37°C. The peroxidation solution was then removed, and the cells were washed twice with DMEM before analyzing viability. To evaluate the effects of a water soluble antioxidant, the cells were treated with 10 μM vitamin C (final concentration) simultaneously with the lipoperoxidators.

Vero cells [3] = experiment: as above; conditions: Vero
Method: as §4, §5, §6

HFF cells = experiment: Viability of HFF cells infected with AMVN-pretreated virions
Method: The inocula were removed, the cells were washed, and the viability was immediately evaluated, mimicking the conditions used to test the direct exposure of the cells to the peroxidators.
After 1 h at 37°C, the cells were washed, and cell viability was evaluated as described.

HSV-1 = HSV-1 virion infectivity (plaquing efficiency) on HFF cells after virion pretreatment; conditions: for EC50: Human alphaherpesvirus 1, HFF
Method: The inocula were removed, and the cells were washed and then incubated at 37°C in 5% CO2 until plaques were visible and well-resolved (about 2 days), at which time they were fixed and stained with crystal violet.
HSV-1 suspensions of 20,000 plaque PFU in 250 μL DMEM were mixed 1:1 with 2-fold serial dilutions of the general peroxidators and were incubated in a water bath for 2 h at 37°C. Next, treated virions were diluted 1:100 before being adsorbed onto cells for 1 h at 37°C. The inocula were removed, and the cells were washed twice with cold DMEM. Infected cells were overlaid with DMEM supplemented with 2% (Vero) or 1% (HFF) methylcellulose and 5% FBS and were incubated at 37°C until plaques were visible and well-resolved, typically in about 2 days. Cell monolayers were fixed and stained with 1% crystal violet in 17% methanol for 18 h at RT. The cells were washed, and the plaques were counted and normalized to those produced by the vehicle treated virions.
To test the effects of lipid soluble antioxidants on virions, 10 μM vitamin E loaded onto 1% carrier BSA in the dark for 4.5 h at RT was incubated with 10^6 HSV-1 virions for 3 h at 37°C. […] The treated virions were diluted 1:100 before infecting cells. […] The mix was incubated for 2 h at 37°C, diluted 1:100, and used to infect cells. The infectivity of an aliquot of treated virions was tested via a plaque assay.

HSV-1 virions [4] = experiment: HSV-1 virion lipid peroxidation probed with C11-Bodipy; design: species or system HSV-1 KOS; conditions: Human alphaherpesvirus 1, Bodipy probe
Method: as §1
To evaluate virion lipoperoxidation with C11-Bodipy, 50 μL DMEM containing 5 × 10^6 PFU of HSV-1 was added into each well of 96-well plates. Virions were then preloaded with 0.1 mol % of C11-Bodipy for 30 min at 37°C. […] Fluorescence was evaluated in a TECAN Infinite M200 Pro at 550 nm excitation and 580 to 630 nm emission with the reading peak at 600 nm.
as §2, §3

HSV-1 virions [5] = experiment: microbe, parasite or virus in culture; design: species or system HSV-1 KOS
Method: as §1
To evaluate virion peroxidation using liperfluo, 50 μL DMEM that contained 5 × 10^6 PFU of HSV-1 was added to 96-well plates. Virions were then preloaded with 10 μM liperfluo for 20 min at 37°C. […] Fluorescence was evaluated in a TECAN Infinite M200 Pro at 515 nm excitation and 545 nm emission. Medium containing no virus was used as blank.
as §2, §3

Question: With `CC(C)CC(C)(C#N)N=NC(C)(C#N)CC(C)C` (stereo not drawn) [AMVN, 2,2′-azobis(2,4-dimethylvaleronitrile)] as the molecule, how does the EC50 (Vero cells [1]; no antioxidant) read?
Answer: 12.6 mM

Question: What about the EC50 (Vero cells [1]; vitamin C) of the same molecule?
Answer: 11.1 mM

Question: And the EC50 (Vero cells [1]; vitamin E)?
Answer: 16.1 mM

Question: And the CC50 at 2 h ([2]; no antioxidant, 2 h at 37°C)?
Answer: 4 mM

Question: And the CC50 at 2 h ([2]; preloaded with vitamin E (10 μM, BSA carrier))?
Answer: 4.6 mM

Question: And the CC50 at 2 h ([2]; with vitamin C (10 μM))?
Answer: 3.3 mM

Question: And the “concentration of maximal inhibition of cell viability” value (Vero cells [3])?
Answer: 10000 µM

Question: And the “PI, CC50 (antioxidant)/CC50” value (Vero cells [3]; vitamin C)?
Answer: 0.8

Question: What about the “PI, CC50 (antioxidant)/CC50” value (Vero cells [3]; vitamin E) of the same molecule?
Answer: 1.2^d

Question: And the “decrease of infected cell viability at the highest AMVN concentration” value (HFF cells; AMVN carried by virions)?
Answer: 20 to 30%

Question: What about the “concentration from which AMVN carried by virions had minor effects on infected cell viability” value (HFF cells; pretreated virions diluted 1:100) of the same molecule?
Answer: 3000 µM

Question: What about the “concentration from which virion infectivity was affected” value (HSV-1) of the same molecule?
Answer: 0.7 mM

Question: What about the “concentration giving a loss of infectivity of about 30%” value (HSV-1; 2 h at 37°C) of the same molecule?
Answer: 0.7 mM

Question: And the EC50 (HSV-1; 2 h, no antioxidant, virions treated 2 h at 37°C)?
Answer: 1.1 mM

Question: And the EC50 (HSV-1; virions preloaded with vitamin E (10 μM, BSA carrier))?
Answer: 2.7 mM

Question: What about the EC50 (HSV-1; with vitamin C (10 μM)) of the same molecule?
Answer: 1.4 mM

Question: And the “SI, CC50/EC50” value (HSV-1; vitamin C)?
Answer: 3.1

Question: What about the “SI, CC50/EC50” value (HSV-1; vitamin E) of the same molecule?
Answer: 1.8

Question: What about the EC50 (HSV-1 virions [4]; no antioxidant, read-out: VP50 (concentration of peroxidant that results in 50% peroxidation in virion lipids)) of the same molecule?
Answer: 2.7 mM

Question: What about the EC50 (HSV-1 virions [4]; vitamin C, read-out: VP50 (the source's name)) of the same molecule?
Answer: 2 mM

Question: What about the EC50 (HSV-1 virions [4]; vitamin E, read-out: VP50 (the source's name)) of the same molecule?
Answer: 2.4 mM

Question: What about the EC50 (HSV-1 virions [5]; Human alphaherpesvirus 1, read-out: VP50, Liperfluo probe, no antioxidant) of the same molecule?
Answer: 1.2 mM

Question: What about the EC50 (HSV-1 virions [5]; Human alphaherpesvirus 1, read-out: VP50, Liperfluo probe, vitamin C) of the same molecule?
Answer: 1.2 mM

Question: And the EC50 (HSV-1 virions [5]; Human alphaherpesvirus 1, read-out: VP50, Liperfluo probe, vitamin E)?
Answer: 0.9 mM
